The experiment concerns KARN cells (Jurkat 2C4). Briefly: cells. The format is cell-based. As to conditions: Homo sapiens, Jurkat. An outline of the steps: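 Luminescence (Steady-Glo, 10 min, room temperature) measured next day in KARN Jurkat 2C4 cells given compounds at up to 40 μM final with 0.4% DMSO. Percent activation normalised to DMSO (0%) and 2 μM SAHA (100%), fitted by 4-parameter curve.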

The mark [1] stands for this setting: read-out: Karn EC50 (nM) 0.1% NHS, 0.1% normal human serum.
The mark [2] stands for this setting: read-out: Karn EC50 (nM) 5% NHS, 5% normal human serum.

SMILES strings stand for the structures. Like-named read-outs stand apart in the source and are kept apart here.

For orientation: EC50 means the concentration giving half of the maximal effect. For the compound `CCC(=O)CCCCC[C@H](NC(=O)[C@H]1CC12CCN(CC)CC2)c1ncc(-c2ccc3c(=O)n(C4CC4)ccc3c2)o1` [Compound 153], the EC50 was determined as 452 nM under setting [1] and 447 nM under setting [2].

Take `CCC(=O)CCCCC[C@H](NC(=O)C1=NOC2(CCN(C)CC2)C1)c1ncc(-c2ccc3nn(C)cc3c2)[nH]1` [Compound 154]: the EC50 reads like this: under setting [1], 518 nM; under setting [2], 476 nM.

`CCC(=O)CCCCC[C@H](NC(=O)CN1CCC2(CC1)CC2)c1ncc(-c2ccc3nn(C)cc3c2)[nH]1` [Compound 155]: the concentration for a half-maximal effect (EC50) under setting [1] was 354 nM and the EC50 under setting [2] came out at 398 nM.

As for `CCC(=O)CCCCC[C@H](NC(=O)C1CCC2(CC1)CN(C)C2)c1ncc(-c2ccc3nn(C)cc3c2)[nH]1` [Compound 156], the EC50 under setting [1] came out at 1360 nM and the EC50 under setting [2] is 1360 nM.

`CCC(=O)CCCCC[C@H](NC(=O)C1(CC(C)C)CC2(CN(C)C2)C1)c1ncc(-c2ccc3nc(C)ccc3c2)[nH]1` [Compound 157]: the EC50 by setting is: under setting [1], 451 nM; under setting [2], 557 nM.

With `CCC(=O)CCCCC[C@H](NC(=O)[C@H]1CC12CCN(CC)CC2)c1ncc(-c2ccc3c(cnn3C3CC3)c2)[nH]1` [Compound 159], the EC50 was 73 nM under setting [1] and 57 nM under setting [2].

As to `CCC(=O)CCCCC[C@H](NC(=O)[C@H]1CC12CCN(C)CC2)c1ncc(-c2ccc3nc(C4CC4)oc3c2)[nH]1` [Compound 160], the EC50 reads like this: under setting [1], 200 nM; under setting [2], 234 nM.

In the case of `CCC(=O)CCCCC[C@H](NC(=O)[C@H]1CC12CCN(CC)CC2)c1ncc(-c2ccc(-c3cnc(C4CC4)nc3)cc2)o1` [Compound 161], the EC50 is, setting by setting: under setting [1], 1370 nM; under setting [2], 1460 nM.

Turning to `CCC(=O)CCCCC[C@H](NC(=O)[C@H]1CC12CCN(CC)CC2)c1ncc(-c2ccc3c(=O)n(CC)ccc3c2)o1` [Compound 162], the EC50 under setting [1] was determined as 257 nM and the EC50 under setting [2] stood at 305 nM.

For the compound `CCN1CCC2(CC1)C[C@@H]2C(=O)N[C@@H](CCCCCC(=O)CC1CC1)c1ncc(-c2cc3ccc(C)nc3cc2OC)[nH]1` [Compound 165], the EC50 is, setting by setting: under setting [1], 140 nM; under setting [2], 385 nM.

Take `CCN1CCC2(CC1)C[C@@H]2C(=O)N[C@@H](CCCCCC(=O)CC1CC1)c1ncc(-c2cc3ccc(C)nc3cc2OC)o1` [Compound 167]: the EC50 reads like this: under setting [1], 122 nM; under setting [2], 253 nM.

With `CCC(=O)CCCCC[C@H](NC(=O)[C@H]1CC12CCN(C)CC2)c1ncc(-c2cc(OC)c3ccccc3n2)[nH]1` [Compound 170], the EC50 is, setting by setting: under setting [1], 436 nM; under setting [2], 1160 nM.

Turning to `CCC(=O)CCCCC[C@H](NC(=O)[C@H]1CC12CCN(C)CC2)c1ncc(-c2ccc3nc(C)cc(Cl)c3c2)[nH]1` [Compound 174], the EC50 is, setting by setting: under setting [1], 67 nM; under setting [2], 82 nM.

As to `CCC(=O)CCCCC[C@H](N)c1ncc(-c2ccc3nc(C)ccc3c2)[nH]1` [Compound 178], the EC50 amounted to 6790 nM under setting [1] and 10400 nM under setting [2].

For the compound `C=CCN1CCC2(CC1)C[C@@H]2C(=O)N[C@@H](CCCCCC(=O)CC)c1ncc(-c2ccc3c(c2)C2CCC3N2CC=C)[nH]1` (stereo partly drawn) [Compound 179, (1S)—N-{(1S)-7-oxo-1-[5-(9-prop-2-en-1-yl-1,2,3,4-tetrahydro-1,4-epiminonaphthalen-6-yl)-1H-imidazol-2-yl]nonyl}-6-prop-2-en-1-yl-6-azaspiro[2.5]octane-1-carboxamide], the concentration for a half-maximal effect (EC50) turned out to be 2410 nM under setting [1] and 2390 nM under setting [2].

Take `C=CCN1CCC2(CC1)C[C@@H]2C(=O)N[C@@H](CCCCCC(=O)CC)c1ncc(-c2cccc3c2C2CCC3N2CC=C)[nH]1` (stereo partly drawn) [Compound 180, (1S)—N-{(1S)-7-oxo-1-[5-(9-prop-2-en-1-yl-1,2,3,4-tetrahydro-1,4-epiminonaphthalen-5-yl)-1H-imidazol-2-yl]nonyl}-6-prop-2-en-1-yl-6-azaspiro[2.5]octane-1-carboxamide]: the EC50 is, setting by setting: under setting [1], 371 nM; under setting [2], 666 nM.

The record behind these values is US12590099B2, “Inhibitors of histone deacetylase useful for the treatment or prevention of HIV infection” (Merck Sharp & Dohme LLC, priority 2018, dated 2026).
